Laboratory results as given in paper PMC8085340, “Inhibiting Pyridoxal Kinase of Entamoeba histolytica Is Lethal for This Pathogen” (Frontiers in Cellular and Infection Microbiology, 2021).

Target: T1, EhPLK (pyridoxal kinase) (Entamoeba histolytica, UniProt C4LVZ4)
T1 construct: gene EHI_126090; recombinant histidine-tagged EhPLK
T1 sequence (C4LVZ4 1-279): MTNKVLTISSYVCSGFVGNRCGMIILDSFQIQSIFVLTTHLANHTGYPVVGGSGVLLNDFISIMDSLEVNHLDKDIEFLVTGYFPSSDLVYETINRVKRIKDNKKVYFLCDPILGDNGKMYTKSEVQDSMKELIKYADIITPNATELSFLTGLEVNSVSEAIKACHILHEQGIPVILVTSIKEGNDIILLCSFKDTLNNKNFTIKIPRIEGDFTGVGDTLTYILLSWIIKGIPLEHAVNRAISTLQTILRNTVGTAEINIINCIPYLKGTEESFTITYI
Assay: spectrophotometric PLP formation assay at […] nm with purified enzyme; partial inhibition (maximum […])
Format: biochemical

| Structure (SMILES) | IC50 [µM] |
| --- | --- |
| O=S1(=O)CCCN1c1ccc(Nc2ncnc3ccsc23)cc1 [compound 1, N-[4-(1,1-dioxo-1,2-thiazolidin-2-yl)phenyl]thieno[3,2-d]pyrimidin-4-amine] | ~250 |
| O=S1(=O)CCCN1c1ccc(Nc2ncnc3sccc23)cc1 [compound 2, N-[4-(1,1-dioxo-1,2-thiazolidin-2-yl)phenyl]thieno[2,3-d]pyrimidin-4-amine] | ~100 |
